Data set [1] relates to LXFE 397/26N17 (Non-Small Cell Lung Cancer, squamous cell carcinoma) xenograft.
Protocol: (§1) Animals and tumor implants were monitored daily until the maximum number of implants show clear signs of beginning solid tumor growth. […] The day of randomization was designated as day 0 of an experiment and was also the first day of dosing.
(§2) The tumor volume was determined by a two-dimensional measurement with callipers on the day of randomization (Day 0) and then once to twice weekly. Tumor volumes were calculated according to the following equation:
Tumor Vol[mm^3]=a[mm]×b^2[mm^2]×0.5
(§3) where “a” is the largest diameter and “b” is the perpendicular diameter of the tumor representing an idealized ellipsoid.
(§4) The relative volume of an individual tumor on day X (RTVx) was calculated by dividing the absolute volume [mm^3] of the respective tumor on day X (Tx) by the absolute volume of the same tumor on the day of randomization, i.e. on day 0 (T0), multiplied by 100, as shown by the following equation:
(§5) Group median of RTVs were calculated, considering only the tumors of animals that were alive on the day in question. Group median RTVs are used for drawing tumor growth curves.
Mice were either treated with Capecitabine at a dose of 100 mg/kg per orally (p.o.), with the plasma expander Voluven® 10% at a dose of 20 ml/kg bodyweight intravenously (i.v.), or with saline (20 ml/kg) i.v. at days 0, 4, 7, 11, 14, and 18. Tumor growth and body weight were determined over the course of the experiment. […]
The conditions of data set [2]: LXFE 397 study, FIG. 2.
Protocol: (§6) Starting on day 0, animals were weighed once to twice a week. Relative body weights (RBW) of individual animals are calculated by dividing the individual absolute body weight on day X (BWx) by the individual body weight on the day of randomization, i.e. day 0 (BW0), multiplied by 100, as shown by the following equation:
(§7) Group median of relative body weights were determined, considering only the weights of animals that were alive on the day in question.
Tumor growth and body weight were determined over the course of the experiment.
For data set [3], the system named is HNXF 1842 (Head and Neck Cancer, squamous cell carcinoma) xenograft. Nature of the data set: Tumor growth of HNXF 1842 human tumor xenograft in NMRI nu/nu mice. It counts as in vivo.
Protocol: as §1, §2
Tumor Vol[mm^3]=a[mm]×b^2[mm^2]×0.5
as §3, §4, §5
Mice were either treated with Paclitaxel at a dose of 10 mg/kg i.v., with a combination of Voluven® 10% (20 ml/kg i.v.) and Paclitaxel (10 mg/kg i.v.), or with saline (20 ml/kg) i.v. at days 0, 7, 14, and 21. Tumor growth and body weight were determined over the course of the experiment. […]
A short description of data set [4]: Relative body weight of mice bearing HNXF 1842 tumors. It counts as in vivo. Particulars: HNXF 1842 study, FIG. 4.
Protocol: as §6, §7
Mice were either treated with Paclitaxel at a dose of 10 mg/kg i.v., with a combination of Voluven® 10% (20 ml/kg i.v.) and Paclitaxel (10 mg/kg i.v.), or with saline (20 ml/kg) i.v. at days 0, 7, 14, and 21. Tumor growth and body weight were determined over the course of the experiment.
Data set [5] can be described thus: Relative body weight of mice bearing RXF 1220 tumors. It counts as in vivo. Particulars: RXF 1220 study, FIG. 6.
Protocol: Starting on day 0, animals were weighed once to twice a week. Relative body weights (RBW) of individual animals are calculated by dividing the individual absolute body weight on day X (BWx) by the individual body weight on the day of randomization, i.e. day 0 (BW0), multiplied by 100, as shown by the following equation: Group median of relative body weights were determined, considering only the weights of animals that were alive on the day in question. Mice were either treated with Sunitinib at a dose of 40 mg/kg p.o., with a combination of Voluven® 10% (20 ml/kg i.v.) and Sunitinib (40 mg/kg p.o.), or with saline (20 ml/kg) i.v. at days 0-11. Tumor growth and body weight were determined over the course of the experiment.
The subject of data set [6] is RXF 1220 (renal cancer, hypernephroma) xenograft. Conditions: day 27; Sunitinib 40 mg/kg p.o., Voluven 10% 20 ml/kg i.v. 1 hour prior; days 0-11.
Protocol: as §1, §2
Tumor Vol[mm^3]=a[mm]×b^2[mm^2]×0.5
as §3, §4, §5
Mice were either treated with Sunitinib at a dose of 40 mg/kg p.o., with a combination of Voluven® 10% (20 ml/kg i.v.) and Sunitinib (40 mg/kg p.o.), or with saline (20 ml/kg) i.v. at days 0-11. Tumor growth and body weight were determined over the course of the experiment. […]

Like-named read-outs stand apart in the source and are kept apart here.

Consider `CCCCCOC(=O)Nc1nc(=O)n([C@@H]2O[C@H](C)[C@@H](O)[C@H]2O)cc1F` [Capecitabine], for which the “median relative tumor volume increase compared to day 0” value (shortened to “median relative tumor volume increase”) in data set [1] (day 14, Capecitabine 100 mg/kg p.o., Voluven 10% 20 ml/kg i.v. 1 hour prior, days 0, 4, 7, 11, 14, 18) was “approx. 15.2 fold”. Further, the “inhibitory effect on tumor growth (in words)” value in data set [1] (over 14 days, combination compared with reference drug alone) is reported as “moderately inhibited the tumor growth”. Also, the “relative median body weight over time (in words)” value (shortened to “relative median body weight”) in data set [2] was “did not increase the body weight as steadily as the other two”.
Consider `CC(=O)O[C@H]1C(=O)[C@@]2(C)[C@H]([C@H](OC(=O)c3ccccc3)[C@]3(O)C[C@H](OC(=O)[C@H](O)[C@@H](NC(=O)c4ccccc4)c4ccccc4)C(C)=C1C3(C)C)[C@]1(OC(C)=O)CO[C@@H]1C[C@@H]2O` [Paclitaxel], for which the “median relative tumor volume increase” value in data set [3] (day 18, Paclitaxel 10 mg/kg i.v., Voluven 10% 20 ml/kg i.v. 1 hour prior, days 0, 7, 14, 21) is on record as “approx. 7.1 fold”. Moreover, the “inhibitory effect on tumor growth (in words)” value in data set [3] (over 18 days, combination compared with reference drug alone) was “inhibited the tumor growth”. Further, the “relative median body weight” value in data set [4] is “lowest increase”.
`CCN(CC)CCNC(=O)c1c(C)[nH]c(/C=C2\C(=O)Nc3ccc(F)cc32)c1C` [Sunitinib]: the “relative median body weight” value in data set [5] is on record as “increased slightly over time”. Besides, the “median relative tumor volume increase” value in data set [6] is reported as “approx. 8.5 fold”.

The values above are taken from patent US20130196949A1, “Hydroxyalkyl starch in combination with cytostatica for the treatment of cancers by reduction of tumor growth rates” (Fresenius Kabi Deutschland GmbH, priority 2012, published 2013).
